The source of these data is ChEMBL document CHEMBL5465560, “Selectivity Literature for EUbOPEN Chemogenomic Library” (2024).

Molecules are shown by their SMILES.

One data set deals with OATP1B1 (SLCO1B1) (Homo sapiens, UniProt Q9Y6L6). The experiment in a line: Selectivity interaction (Panel of kinases, GPCRs, ion channels and transporters (enzymatic assay)) EUB0000266bCl SLCO1B1. The following applies: not told.
In data set [1] the target is Protein-tyrosine kinase 6 (Homo sapiens, UniProt Q13882). The experiment in a line: Selectivity interaction (Upstate Kinase Profiler service (Millipore)) EUB0000056c PTK6. The note with it: at 1 µM.
The target in data set [2] is Cyclin-dependent kinase 18 (Homo sapiens) (UniProt Q07002). The experiment in a line: Selectivity interaction (Ambit KINOMEscan and KiNATiv profiling in Jurkat cells) EUB0000090b CDK18. Format: cell-based. The note with it: at 1 µM.
Data set [3] has as its target Serine/threonine-protein kinase 26 (Homo sapiens, UniProt Q9P289). The following applies: at 10 µM.
Data set [4] deals with Serine/threonine-protein kinase tousled-like 2 (Homo sapiens) (UniProt Q86UE8). The data set is described as follows: Selectivity interaction (KinomeScan (DiscoverX)) EUB0000092b TLK2. The following applies: at 10 µM.
Sequence of Serine/threonine-protein kinase tousled-like 2 (Homo sapiens) (Q86UE8 whole entry, looked up): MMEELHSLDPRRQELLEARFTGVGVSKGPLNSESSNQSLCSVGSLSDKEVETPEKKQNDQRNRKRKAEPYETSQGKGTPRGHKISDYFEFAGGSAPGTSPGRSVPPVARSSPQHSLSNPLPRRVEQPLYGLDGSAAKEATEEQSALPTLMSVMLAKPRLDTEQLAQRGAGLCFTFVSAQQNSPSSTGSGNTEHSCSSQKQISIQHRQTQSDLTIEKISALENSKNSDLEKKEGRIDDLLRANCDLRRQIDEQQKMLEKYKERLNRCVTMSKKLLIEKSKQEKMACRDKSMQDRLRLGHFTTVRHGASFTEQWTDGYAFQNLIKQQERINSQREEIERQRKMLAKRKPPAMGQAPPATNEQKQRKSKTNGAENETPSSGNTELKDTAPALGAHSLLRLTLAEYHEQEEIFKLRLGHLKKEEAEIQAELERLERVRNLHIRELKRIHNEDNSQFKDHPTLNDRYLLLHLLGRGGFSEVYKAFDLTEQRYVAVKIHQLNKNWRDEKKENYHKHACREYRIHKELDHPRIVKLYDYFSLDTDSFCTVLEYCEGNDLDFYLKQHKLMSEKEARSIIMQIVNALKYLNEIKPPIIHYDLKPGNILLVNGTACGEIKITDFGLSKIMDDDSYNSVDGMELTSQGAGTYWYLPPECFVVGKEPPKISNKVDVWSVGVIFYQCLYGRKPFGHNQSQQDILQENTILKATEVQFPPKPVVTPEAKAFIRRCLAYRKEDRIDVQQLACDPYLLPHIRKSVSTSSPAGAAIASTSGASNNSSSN
The target of data set [5] is RAC-beta serine/threonine-protein kinase (Homo sapiens) (UniProt P31751). The data set is described as follows: Selectivity interaction (KinomeScan (DiscoverX)) EUB0000655a AKT2. The following applies: at 10 µM.
The target of data set [6] is Neuronal acetylcholine receptor subunit beta-2 (Homo sapiens) (UniProt P17787). The data set is described as follows: Selectivity interaction (Eurofins CEREP Diversity Profile (receptors and ion channels)) EUB0000279b CHRNB2. The following applies: at 10 µM.
Data set [7] concerns the target P2Y purinoceptor 2 (Homo sapiens) (UniProt P41231). The data set is described as follows: Selectivity interaction (Eurofins CEREP Diversity Profile (receptors and ion channels)) EUB0000279b P2RY2. The note with it: at 10 µM.
Data set [8] addresses Tyrosine-protein kinase JAK2 (Homo sapiens, UniProt O60674). The experiment in a line: Selectivity interaction (KinomeScan (DiscoverX)) EUB0000045b JAK2.
In data set [9] the target is MAP/microtubule affinity-regulating kinase 3 (Homo sapiens) (UniProt P27448). The experiment in a line: Selectivity interaction (KinomeScan (DiscoverX)) EUB0000045b MARK3.
Sequence of MAP/microtubule affinity-regulating kinase 3 (Homo sapiens) (P27448 whole entry, looked up): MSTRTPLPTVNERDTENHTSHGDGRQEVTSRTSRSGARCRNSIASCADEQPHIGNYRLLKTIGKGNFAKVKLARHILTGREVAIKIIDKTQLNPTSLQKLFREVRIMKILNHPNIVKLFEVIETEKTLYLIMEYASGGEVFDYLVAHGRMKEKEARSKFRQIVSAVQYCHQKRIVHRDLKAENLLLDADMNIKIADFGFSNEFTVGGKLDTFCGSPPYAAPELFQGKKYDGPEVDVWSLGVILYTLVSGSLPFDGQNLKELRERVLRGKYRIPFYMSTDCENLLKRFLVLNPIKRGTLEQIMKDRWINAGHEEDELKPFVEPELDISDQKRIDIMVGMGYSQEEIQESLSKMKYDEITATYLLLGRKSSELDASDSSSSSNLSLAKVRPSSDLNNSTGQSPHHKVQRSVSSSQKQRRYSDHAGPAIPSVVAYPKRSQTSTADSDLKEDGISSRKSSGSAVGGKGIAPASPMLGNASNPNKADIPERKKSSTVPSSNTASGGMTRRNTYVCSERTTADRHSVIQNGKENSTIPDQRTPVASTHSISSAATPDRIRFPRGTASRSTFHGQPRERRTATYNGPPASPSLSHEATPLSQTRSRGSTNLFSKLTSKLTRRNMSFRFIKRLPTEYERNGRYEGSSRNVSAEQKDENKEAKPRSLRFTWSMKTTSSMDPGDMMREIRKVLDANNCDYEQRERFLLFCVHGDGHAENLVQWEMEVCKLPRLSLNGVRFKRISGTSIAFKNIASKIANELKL
Data set [10] relates to eIF-2-alpha kinase GCN2 (Homo sapiens), Q9P2K8 [S808G]. The experiment in a line: Selectivity interaction (KinomeScan (DiscoverX)) EUB0000045b EIF2AK4.
Sequence of eIF-2-alpha kinase GCN2 (Homo sapiens), Q9P2K8 [S808G] (Q9P2K8 whole entry S808G): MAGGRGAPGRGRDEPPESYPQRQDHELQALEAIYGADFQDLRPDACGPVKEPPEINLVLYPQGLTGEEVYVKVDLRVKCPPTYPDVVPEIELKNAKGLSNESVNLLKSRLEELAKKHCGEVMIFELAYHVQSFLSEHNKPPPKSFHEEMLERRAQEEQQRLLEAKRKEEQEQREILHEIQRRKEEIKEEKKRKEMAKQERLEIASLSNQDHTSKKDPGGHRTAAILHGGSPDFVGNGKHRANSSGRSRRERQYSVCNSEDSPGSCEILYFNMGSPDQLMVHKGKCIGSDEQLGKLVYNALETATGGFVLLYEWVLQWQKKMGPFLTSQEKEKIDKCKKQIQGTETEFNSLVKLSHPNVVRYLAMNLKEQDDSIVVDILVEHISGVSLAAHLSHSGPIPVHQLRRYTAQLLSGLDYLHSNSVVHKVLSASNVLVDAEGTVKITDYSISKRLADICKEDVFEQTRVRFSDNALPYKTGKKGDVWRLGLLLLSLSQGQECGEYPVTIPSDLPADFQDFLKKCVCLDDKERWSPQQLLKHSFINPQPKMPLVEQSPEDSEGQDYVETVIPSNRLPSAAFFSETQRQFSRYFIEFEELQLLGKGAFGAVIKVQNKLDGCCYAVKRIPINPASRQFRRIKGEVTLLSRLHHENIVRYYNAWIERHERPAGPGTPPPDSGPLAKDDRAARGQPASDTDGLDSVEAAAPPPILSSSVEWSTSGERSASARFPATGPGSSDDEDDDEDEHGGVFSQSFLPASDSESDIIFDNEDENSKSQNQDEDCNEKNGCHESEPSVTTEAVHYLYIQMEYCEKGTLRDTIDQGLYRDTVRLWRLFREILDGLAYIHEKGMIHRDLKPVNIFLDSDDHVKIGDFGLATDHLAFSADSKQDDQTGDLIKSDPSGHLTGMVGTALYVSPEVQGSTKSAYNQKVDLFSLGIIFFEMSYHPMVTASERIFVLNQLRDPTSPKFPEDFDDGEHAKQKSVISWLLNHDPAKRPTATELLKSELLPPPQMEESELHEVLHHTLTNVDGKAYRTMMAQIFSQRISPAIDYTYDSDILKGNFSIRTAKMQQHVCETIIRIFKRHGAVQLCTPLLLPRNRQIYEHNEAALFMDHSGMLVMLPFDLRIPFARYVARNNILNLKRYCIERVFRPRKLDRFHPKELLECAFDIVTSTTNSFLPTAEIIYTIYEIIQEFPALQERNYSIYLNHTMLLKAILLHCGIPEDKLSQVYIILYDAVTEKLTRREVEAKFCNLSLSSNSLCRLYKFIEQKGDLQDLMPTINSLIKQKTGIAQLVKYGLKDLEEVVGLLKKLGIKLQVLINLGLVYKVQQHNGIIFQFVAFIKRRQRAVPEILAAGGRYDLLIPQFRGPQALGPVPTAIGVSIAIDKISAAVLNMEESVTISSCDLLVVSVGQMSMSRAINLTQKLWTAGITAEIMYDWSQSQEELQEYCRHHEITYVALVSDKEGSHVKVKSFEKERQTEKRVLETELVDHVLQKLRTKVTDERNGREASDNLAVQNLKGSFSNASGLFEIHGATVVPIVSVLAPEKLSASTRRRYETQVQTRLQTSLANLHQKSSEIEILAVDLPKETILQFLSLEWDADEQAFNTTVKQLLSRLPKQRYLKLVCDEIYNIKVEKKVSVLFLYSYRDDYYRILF
Data set [11] has as its target T1, Serine/threonine-protein kinase D1 (Homo sapiens) (UniProt Q15139).
T1 sequence (whole entry): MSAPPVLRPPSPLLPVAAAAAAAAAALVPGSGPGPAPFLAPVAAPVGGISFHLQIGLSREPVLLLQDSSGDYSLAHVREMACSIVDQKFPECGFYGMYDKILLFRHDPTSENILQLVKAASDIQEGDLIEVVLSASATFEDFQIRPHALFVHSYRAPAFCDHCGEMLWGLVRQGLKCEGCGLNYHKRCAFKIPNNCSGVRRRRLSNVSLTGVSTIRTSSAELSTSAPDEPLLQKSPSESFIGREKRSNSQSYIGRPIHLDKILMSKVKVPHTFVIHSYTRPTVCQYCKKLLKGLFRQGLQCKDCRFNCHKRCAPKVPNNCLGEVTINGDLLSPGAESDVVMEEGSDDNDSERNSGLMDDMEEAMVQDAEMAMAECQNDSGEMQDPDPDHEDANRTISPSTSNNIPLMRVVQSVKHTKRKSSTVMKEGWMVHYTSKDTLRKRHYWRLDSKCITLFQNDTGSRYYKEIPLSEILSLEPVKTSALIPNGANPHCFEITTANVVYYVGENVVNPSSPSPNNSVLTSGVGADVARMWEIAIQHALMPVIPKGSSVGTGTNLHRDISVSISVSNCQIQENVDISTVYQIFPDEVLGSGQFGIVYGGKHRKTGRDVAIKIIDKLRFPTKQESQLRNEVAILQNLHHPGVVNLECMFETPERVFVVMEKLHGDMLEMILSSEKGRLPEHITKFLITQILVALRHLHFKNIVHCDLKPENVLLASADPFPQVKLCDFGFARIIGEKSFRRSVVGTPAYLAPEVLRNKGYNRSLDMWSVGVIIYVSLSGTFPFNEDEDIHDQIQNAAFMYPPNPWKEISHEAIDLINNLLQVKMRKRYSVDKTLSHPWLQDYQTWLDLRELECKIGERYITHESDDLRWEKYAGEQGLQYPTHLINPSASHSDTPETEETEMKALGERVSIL
The experiment in a line: Selectivity interaction (KinomeScan (DiscoverX)) EUB0000666a PRKD1. The following applies: at 10 µM.

The target in another data set is Focal adhesion kinase 1 (Homo sapiens, UniProt Q05397). The data set is described as follows: Selectivity interaction (Kinase panel (Z-LYTE Assay)) EUB0001632a PTK2. The note with it: at 10 µM.
Data set [12] concerns the target Mitogen-activated protein kinase kinase kinase kinase 4 (Homo sapiens, UniProt O95819). The experiment in a line: Selectivity interaction (SelectScreen profiling (Invitrogen)) EUB0000607a MAP4K4. The note with it: at 2 µM.
Data set [13] concerns the target Phosphatidylinositol 4,5-bisphosphate 3-kinase catalytic subunit gamma isoform (Homo sapiens) (UniProt P48736). The experiment in a line: Selectivity interaction (KinomeScan (DiscoverX)) EUB0000607a PIK3CG. The following applies: at 10 µM.
Data set [14] deals with Tyrosine-protein kinase Srms (Homo sapiens) (UniProt Q9H3Y6). The experiment in a line: Selectivity interaction (KinomeScan (DiscoverX)) EUB0000595a SRMS. The note with it: at 10 µM.
Data set [15] concerns the target Serine/threonine-protein kinase MRCK alpha (Homo sapiens) (UniProt Q5VT25). The following applies: at 10 µM.
Data set [16] deals with Mitogen-activated protein kinase kinase kinase kinase 5 (Homo sapiens) (UniProt Q9Y4K4). The data set is described as follows: Selectivity interaction (ActivX KiNativ screen (ex vivo kinase selectivity in human PBMCs)) EUB0001619a MAP4K5. Format: cell-based. The note with it: PBMC, at 1 µM.
For data set [17], the target named is T2, Serine/threonine-protein kinase MAK (Homo sapiens) (UniProt P20794).
T2 sequence (whole entry): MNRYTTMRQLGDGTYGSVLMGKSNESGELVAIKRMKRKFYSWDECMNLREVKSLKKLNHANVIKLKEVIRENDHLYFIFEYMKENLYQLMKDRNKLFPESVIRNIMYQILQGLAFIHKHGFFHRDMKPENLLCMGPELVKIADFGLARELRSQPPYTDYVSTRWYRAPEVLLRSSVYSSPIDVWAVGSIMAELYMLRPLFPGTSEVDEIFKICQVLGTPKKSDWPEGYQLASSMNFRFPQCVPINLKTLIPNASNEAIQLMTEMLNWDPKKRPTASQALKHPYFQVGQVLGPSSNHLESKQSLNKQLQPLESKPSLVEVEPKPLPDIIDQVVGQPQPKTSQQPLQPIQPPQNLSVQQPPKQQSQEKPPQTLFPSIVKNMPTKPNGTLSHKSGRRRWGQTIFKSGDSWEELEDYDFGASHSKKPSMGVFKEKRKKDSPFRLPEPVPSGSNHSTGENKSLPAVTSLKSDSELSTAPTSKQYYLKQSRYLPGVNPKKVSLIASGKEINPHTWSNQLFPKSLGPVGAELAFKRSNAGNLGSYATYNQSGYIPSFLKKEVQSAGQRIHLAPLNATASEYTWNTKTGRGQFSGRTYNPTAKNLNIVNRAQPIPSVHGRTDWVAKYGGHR
The experiment in a line: Selectivity interaction (KinomeScan (DiscoverX)) EUB0000618a MAK. The following applies: at 10 µM.

Sequence of Tyrosine-protein kinase JAK2 (O60674 whole entry): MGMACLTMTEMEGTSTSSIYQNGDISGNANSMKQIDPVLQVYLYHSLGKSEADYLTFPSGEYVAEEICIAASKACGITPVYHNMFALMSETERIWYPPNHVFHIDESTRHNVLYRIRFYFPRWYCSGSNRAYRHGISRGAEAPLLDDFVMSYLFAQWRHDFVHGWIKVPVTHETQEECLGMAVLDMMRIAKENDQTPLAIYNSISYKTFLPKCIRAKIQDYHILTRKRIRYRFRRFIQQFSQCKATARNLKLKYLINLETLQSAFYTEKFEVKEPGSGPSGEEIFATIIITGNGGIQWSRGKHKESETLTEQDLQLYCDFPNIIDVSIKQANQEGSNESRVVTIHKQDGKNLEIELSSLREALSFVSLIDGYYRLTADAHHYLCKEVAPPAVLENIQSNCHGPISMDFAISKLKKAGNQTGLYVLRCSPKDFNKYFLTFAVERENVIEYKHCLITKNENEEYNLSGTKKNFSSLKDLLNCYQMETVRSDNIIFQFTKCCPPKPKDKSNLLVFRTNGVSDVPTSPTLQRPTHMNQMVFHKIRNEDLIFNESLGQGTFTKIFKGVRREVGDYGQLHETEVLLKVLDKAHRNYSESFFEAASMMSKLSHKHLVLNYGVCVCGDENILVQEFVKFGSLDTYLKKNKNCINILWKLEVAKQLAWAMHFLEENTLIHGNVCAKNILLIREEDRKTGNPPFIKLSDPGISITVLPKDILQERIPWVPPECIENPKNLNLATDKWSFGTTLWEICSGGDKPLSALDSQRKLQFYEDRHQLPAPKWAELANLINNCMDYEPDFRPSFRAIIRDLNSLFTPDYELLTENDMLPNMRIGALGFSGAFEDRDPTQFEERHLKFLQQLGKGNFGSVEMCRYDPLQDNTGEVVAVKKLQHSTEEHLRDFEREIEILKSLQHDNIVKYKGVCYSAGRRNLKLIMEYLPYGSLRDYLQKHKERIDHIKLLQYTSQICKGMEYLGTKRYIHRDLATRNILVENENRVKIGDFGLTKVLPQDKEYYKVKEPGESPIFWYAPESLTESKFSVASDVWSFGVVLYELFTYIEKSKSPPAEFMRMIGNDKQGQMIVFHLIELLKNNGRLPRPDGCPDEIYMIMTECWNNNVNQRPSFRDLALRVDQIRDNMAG
Sequence of Serine/threonine-protein kinase 26 (Q9P289 2-416 limits assumed): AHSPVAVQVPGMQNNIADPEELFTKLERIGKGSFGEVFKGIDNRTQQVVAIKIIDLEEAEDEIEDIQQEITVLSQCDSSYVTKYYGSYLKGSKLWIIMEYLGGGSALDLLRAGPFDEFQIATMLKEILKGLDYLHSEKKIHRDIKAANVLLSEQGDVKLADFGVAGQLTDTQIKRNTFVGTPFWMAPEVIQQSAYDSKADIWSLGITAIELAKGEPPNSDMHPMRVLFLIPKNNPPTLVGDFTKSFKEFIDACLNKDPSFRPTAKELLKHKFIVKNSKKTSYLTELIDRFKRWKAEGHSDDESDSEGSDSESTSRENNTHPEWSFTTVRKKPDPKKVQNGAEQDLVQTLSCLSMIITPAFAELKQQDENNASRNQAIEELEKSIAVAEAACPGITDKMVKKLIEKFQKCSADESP
Sequence of P2Y purinoceptor 2 (Homo sapiens) (P41231 whole entry): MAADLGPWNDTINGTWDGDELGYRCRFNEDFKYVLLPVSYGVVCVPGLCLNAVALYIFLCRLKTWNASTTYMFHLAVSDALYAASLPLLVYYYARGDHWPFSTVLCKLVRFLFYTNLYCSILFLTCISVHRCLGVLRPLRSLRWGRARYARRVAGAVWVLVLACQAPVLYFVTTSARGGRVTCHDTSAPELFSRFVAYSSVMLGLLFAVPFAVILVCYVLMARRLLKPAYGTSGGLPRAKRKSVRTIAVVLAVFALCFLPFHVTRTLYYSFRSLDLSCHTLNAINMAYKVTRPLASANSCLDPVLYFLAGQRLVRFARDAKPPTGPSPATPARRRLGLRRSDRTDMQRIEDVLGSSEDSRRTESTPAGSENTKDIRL

In the case of `CCn1c(-c2nc3cc(C(=O)N4CCCC(N)C4)ccc3n2C)cc2ccccc21` (configuration not stated), on OATP1B1 (SLCO1B1), the XC50 was above 50.1 µM.

Regarding `Cc1ccc(-c2ccc3c(ccc4sc5c(c43)NC[C@@H](C)NC5=O)n2)cn1`, in data set [1], the % of inhibition was 0%. Take `CN(C)C/C=C/C(=O)Nc1ccc(C(=O)N2CCCC(Nc3ncc(Cl)c(-c4c[nH]c5ccccc45)n3)C2)cc1` (configuration not stated): the % of control in data set [2] stood at 59%. Regarding `CCN(CC)CCCCNc1ncc2cc(-c3cc(OC)cc(OC)c3)c(NC(=O)NC(C)(C)C)nc2n1`, the % of control in data set [3] is 100%. `CCC(=O)N1CCN(c2ccc(-n3c(=O)ccc4cnc5ccc(-c6cnc7ccccc7c6)cc5c43)cc2C(F)(F)F)CC1` returned a % of control in data set [4] of 100%.

In turn, `CN(C)CCOc1ccc(-c2nc(-c3ccncc3)c(-c3ccc4c(c3)CC/C4=N\O)[nH]2)cc1` came in with a % of control in [5] of 100%. `CC(=O)c1cc(-c2ccccc2OCC2CC2)c2ncccn12`: the % of control in data set [6] stood at 105%; in data set [7], 84%. For `C=CC(=O)Nc1cc(-n2c(=O)ccc3cnc4ccc(-c5ccc(NS(C)(=O)=O)cc5)cc4c32)ccc1C`, the % of control in [8] (at 1 µM) was found to be 86%; in [8] (at 10 µM) it was 100%; in [9] (at 1 µM), 75%; in [9] (at 10 µM), 97%; in data set [10] (at 1 µM), 100%; in data set [10] (at 10 µM), 84%.

The compound `O=C(NOC[C@H](O)CO)c1ccc(F)c(F)c1Nc1ccc(I)cc1F` came in with a % of control in [11] of 100%. Turning to `Cn1cc(-n2cnc3c(NCc4nc5cc(Cl)c(Cl)cc5[nH]4)nc(N4CCOCC4)nc32)cn1`, the % of control at Focal adhesion kinase 1 was determined as 5.39%.

`CNC(=O)Nc1ccc(-c2nc(N3CC4CCC(C3)O4)c3cnn(C4CCC5(CC4)OCCO5)c3n2)cc1`: the % of inhibition in data set [12] amounted to 10%. Also, in data set [13], the % of control came to 72%.

Take `COCC(=O)NC/C=C/c1ccc2ncnc(Nc3ccc(Oc4ccc(C)nc4)c(C)c3)c2c1` [CP-724714]: the results for the % of control in data set [14] and in data set [15] were 71% and 100%, respectively.

For the compound `N#Cc1cccc(-c2c[nH]c3ncnc(N4CCOCC4)c23)c1`, in data set [16], the % of inhibition is -13%. As for `O[C@H]1CC[C@H](Nc2ncc3nc(Nc4c(F)cc(F)cc4F)n([C@H]4CCOC4)c3n2)CC1`, in [17], the % of control came to 97%.
